Assay results reported in patent US20040265880A1, “Genomic and proteomic approaches for the development of cell culture medium” (Sigma-Aldrich Co., priority 2003, published 2004).
“Also recorded” adds a separate entry of the source.

How the values were obtained:
HEK-293 cells = test: Resazurin high throughput proliferation assay, HEK-293; assay type: cell-based, human; conditions: for effect on HEK-293 proliferation (RFU, resazurin): versus base medium with 1% FBS, each ligand at three concentrations
Method: Resazurin is a metabolic dye which is converted to a fluorescent product. The greater the amount of the fluorescent product that is generated, the more metabolism, which directly correlates with cell number.
In this assay, resazurin was added to HEK-293 cells plated in each well of a 24-well assay plate containing a test medium containing one of the 16 ligands corresponding to the positive growth factors/cytokines and incubated at 37° C. After a 30 minute incubation, the plate was analyzed on a standard fluorescence plate reader. A higher RFU value from the plate reader translates to a higher cell density in the wells.
Briefly, the 16 ligands corresponding to positive growth factor/cytokine receptors were tested in the resazurin assay, each ligand at three different concentrations. The graphical representations of the RFU values observed for each factor, shown in FIGS. 3 and 4, include the base medium (with 1% FBS) shown as the pink line. The other 3 lines on each graph represent the three (3) concentrations of growth factor tested in the assay. […] Finally, some factors had no effect on the proliferation of the HEK-293 culture (FIG. 3A-3D).
(§1) Cells were plated in each well of a 24-well tissue culture treated plate containing 1 ml of a base medium. The base medium contained the lowest amount of FBS required to maintain approximately half-maximal growth of the given cell type. Test conditions were performed in triplicate, with each test compound added to the base medium at three different concentrations. The cells were allowed to grow until they reached approximately 33% confluent. At this point, 100 μl of the resazurin solution from a resazurin based in vitro toxicology kit (Sigma-Aldrich Co., Product No. TOX-8) was added to each well. After sufficient incubation time to convert some of the resazurin, the fluorescence was measured on a HTS 7000 Plus BioAssay Reader (Perkin-Elmer, Boston, Mass.). Readings were taken once a day until the culture was confluent (typically about 4 days). A plate with base medium only (no cells) was used as a blank and subtracted from the RFU reading to establish the final RFU values.

WI-38 cells = test: Proliferation assay (resazurin), WI-38; assay type: cell-based, human; conditions: single factor added to base medium
From the text: In order to test the possibility of using the method as applied to HEK-293 cells to identify pathways in other cell lines, the normal human fibroblast, WI-38 was chosen. These cells are typically grown in a base medium containing anywhere from 3-10% FBS.
Of the initial 17 receptors gleaned from the microarray, 12 ligands were chosen for testing. These ligands were chosen in the same way as the ligands for the HEK-293 cells, based on signal versus controls as well as based on knowledge of the various factors.
Signaling within a cell for increased growth can be stimulated in a variety of different ways. Combinations of the 4 chosen factors as listed above we added to cell culture medium to determine if the addition of more than 1 of the positive ligands would produce an increased amount of proliferation, or if the ligands would all stimulate the same downstream pathways, leading to no added benefit. This method allowed for the formulation of cell culture medium that it had not been possible to formulate prior to these assays.
as §1

CHO-AP cells [1] = test: Proliferation assay, CHO-AP; assay type: cell-based, Chinese hamster; conditions: suspension culture in serum-free CHO medium
Method: (§2) In order to further test the possibility of using the method as applied to HEK-293 cells to identify pathways in other cell lines, Chinese hamster ovary (CHO) cells were run on a microarray. Cells from the CHO-AP line produce alkaline phosphatase (AP). These cells are grown in a suspension culture in a serum-free CHO medium (Sigma-Aldrich Co., Product No. C5467).
Although the cDNA array from Takara is designed with human sequences, the array was probed using cDNA made from mRNA from the CHO cells. This attempt generated 22 positive receptors, of which 16 were tested (Table 6).
as §1, with “The cells were allowed to grow until they reached approximately 33% confluent. At this point, 100 μl of the resazurin solution from a resazurin based in vitro toxicology kit (Sigma-Aldrich Co., Product No. TOX-8) was added to each well.” left out

CHO-AP cells [2] = test: Alkaline phosphatase production assay, CHO-AP; assay type: cell-based, Chinese hamster; conditions: suspension culture in serum-free CHO medium
Method: as §2
On day 7 of the assay, the contents of each well were collected into 1.5 ml microfuge tubes. The cell suspensions were centrifuged at 16,000 rpm for five minutes. The supernatants were collected in 2 ml cryovials and the cell pellets were discarded. Each supernatant was diluted 1:10 and then assayed for the presence of Alkaline Phosphatase using the Alkaline Phosphatase Reporter Gene Assay Kit, Fluorescence (Product AP-F).

Compound: CCCCC/C=C\C/C=C\C/C=C\C/C=C\CCCC(=O)O [arachidonic acid, reference compound]
- effect on proliferation of HEK-293 cells (PKC pathway stimulation, Example 4) (HEK-293 cells; FIG. 10): positive effect

Compound: basic fibroblast growth factor [bFGF]
- effect on HEK-293 proliferation (RFU, resazurin) (HEK-293 cells): significant effect
- effect on proliferation of WI-38 cells (RFU) (WI-38 cells): significant increased proliferation
- effect on proliferation of WI-38 cells (RFU) (WI-38 cells; listed as basic fibroblast growth factor): positive effects

Compound: epidermal growth factor [EGF, growth factor, ligand of EGF receptor]
- effect on HEK-293 proliferation (RFU, resazurin) (HEK-293 cells): significant effect

Compound: interleukin-1 [IL-1]
- effect on proliferation of WI-38 cells (RFU) (WI-38 cells): significant increased proliferation
- effect on proliferation of WI-38 cells (RFU) (WI-38 cells; listed as interleukin-1): positive effects
- effect on proliferation of CHO-AP cells (CHO-AP cells [1]): positive effects
- productivity of alkaline phosphatase by CHO-AP cells (CHO-AP cells [2]): increased the productivity; also recorded: positive effects

Compound: platelet-derived growth factor [PDGF]
- effect on proliferation of WI-38 cells (RFU) (WI-38 cells): significant increased proliferation
- effect on proliferation of WI-38 cells (RFU) (WI-38 cells; listed as platelet-derived growth factor AB): positive effects

Compound: stromal cell-derived factor 1a [SDF1α]
- effect on HEK-293 proliferation (RFU, resazurin) (HEK-293 cells): significant effect
- effect on proliferation of WI-38 cells (RFU) (WI-38 cells): significant increased proliferation
- effect on proliferation of WI-38 cells (RFU) (WI-38 cells; listed as stromal cell-derived factor 1 a): positive effects
